Read-outs that look alike come from different tables or passages of the source.
Columns and labels:
Format in all cases: cell-based
[1] = system: Aspergillus fumigatus TIMM1776
Method: (§1) The antifungal activities of the compounds synthesized in Examples 1 and 3 to 7 were measured by a liquid medium dilution method. Candida albicans TIMM0136, Cryptococcus neoformans TIMM0354 or Aspergillus fumigatus TIMM1776 was inoculated into a medium containing one of the compounds diluted serially, and cultured at 30° C. for two days. […] For the measurements, a medium containing 0.67% Yeast Nitrogen Base (Difco) and 1.0% glucose (YNBG medium) was used for the cultures of Candida albicans and Cryptococcus neoformans, and a medium containing 0.5% Brain Heart Infusion Bouillon (Nissui) (BHI medium) was used for the culture of Aspergillus fumigatus.

[2] = system: Candida albicans TIMM0136
Method: as §1

[3] = system: Cryptococcus neoformans TIMM0354
Method: as §1

MIC (μg/ml) A.f. ([1]; TIMM1776) [µg/mL] | MIC (μg/ml) C.a. [2] [µg/mL] | MIC (μg/ml) C.n. [3] [µg/mL] | MIC (μg/ml) A.f. ([1]; Aspergillus fumigatus TIMM1776, BHI medium, 30° C., two days, growth almost completely inhibited) [µg/mL] | Compound
– | – | – | 1.56 | CCCCCCCCCCCCCC1CC(=O)N[C@@H](C)C(=O)N[C@@H](CCCN)C(=O)NCCC(=O)N[C@@H](CO)C(=O)N[C@@H](CO)C(=O)N[C@H](CC(N)=O)C(=O)N[C@H]([C@@H](C)O)C(=O)NCC(=O)O1 (mixture of isomers) [Compound 1, cyclo(-L-Ala-L-Orn-β-Ala-L-Ser-L-Ser-D-Asn-D-allo-Thr-Gly-(±) -Hhd-)]
0.39 | 3.12 | 6.25 | – | CCCCCCCCCCCCCC1CC(=O)N[C@@H](C)C(=O)N[C@@H](CCCN)C(=O)N[C@@H](CCC(=O)O)C(=O)N[C@@H](CO)C(=O)N[C@@H](CO)C(=O)N[C@H](CC(N)=O)C(=O)N[C@H]([C@@H](C)O)C(=O)NCC(=O)O1 (mixture of isomers) [Compound 5, cyclo(-L-Ala-L-Orn-L-Glu-L-Ser-L-Ser-D-Asn-D-allo-Thr-Gly-(±)-Hhd-)]
– | 6.25 | 6.25 | – | CCCCCCCCCCCCCC1CC(=O)N[C@@H](C)C(=O)N[C@@H](CCCN)C(=O)N[C@@H](CC(=O)O)C(=O)N[C@@H](CO)C(=O)N[C@@H](CO)C(=O)N[C@H](CC(N)=O)C(=O)N[C@H]([C@@H](C)O)C(=O)NCC(=O)O1 (mixture of isomers) [Compound 4, cyclo(-L-Ala-L-Orn-L-Asp-L-Ser-L-Ser-D-Asn-D-allo-Thr-Gly-(±)-Hhd-)]

Second part, the compound before the results:

Compound | MIC (μg/ml) A.f. ([1]; TIMM1776) [µg/mL] | MIC (μg/ml) C.a. [2] [µg/mL] | MIC (μg/ml) C.n. [3] [µg/mL] | MIC (μg/ml) A.f. ([1]; Aspergillus fumigatus TIMM1776, BHI medium, 30° C., two days, growth almost completely inhibited) [µg/mL]
CCCCCCCCCCCCCC1CC(=O)N[C@@H](C)C(=O)N[C@@H](CCCN)C(=O)NCCC(=O)N[C@@H](CO)C(=O)N[C@@H](CO)C(=O)N[C@H](CC(N)=O)C(=O)N[C@H]([C@H](C)O)C(=O)NCC(=O)O1 (stereo partly drawn) [AA^7:D-Thr-substituted analog] | > 200 | > 200 | > 200 | –
CCCCCCCCCCCCCC1CC(=O)N[C@@H](C)C(=O)N[C@@H](CCCN)C(=O)N[C@@H](CO)C(=O)N[C@@H](CO)C(=O)N[C@@H](CO)C(=O)N[C@H](CC(N)=O)C(=O)N[C@H]([C@@H](C)O)C(=O)NCC(=O)O1 (mixture of isomers) [Compound 7, cyclo(-L-Ala-L-Orn-L-Ser-L-Ser-L-Ser-D-Asn-D-allo-Thr-Gly-(±)-Hhd-)] | 0.78 | 6.25 | 3.12 | –
CCCCCCCCCCCCCC1CC(=O)N[C@@H](C)C(=O)N[C@@H](CCCN)C(=O)NCC(=O)N[C@@H](CO)C(=O)N[C@@H](CO)C(=O)N[C@H](CC(N)=O)C(=O)N[C@H]([C@@H](C)O)C(=O)NCC(=O)O1 (mixture of isomers) [Compound 6, cyclo(-L-Ala-L-Orn-Gly-L-Ser-L-Ser-D-Asn-D-allo-Thr-Gly-(±)-Hhd-)] | – | 12.5 | 3.12 | –
CCCCCCCCCCCCCC1CC(=O)N[C@@H](C)C(=O)N[C@@H](CCCN)C(=O)N[C@@H](CC(N)=O)C(=O)N[C@@H](CO)C(=O)N[C@@H](CO)C(=O)N[C@H](CC(N)=O)C(=O)N[C@H]([C@@H](C)O)C(=O)NCC(=O)O1 (mixture of isomers) [Compound 3, cyclo(-L-Ala-L-Orn-L-Asn-L-Ser-L-Ser-D-Asn-D-allo-Thr-Gly-(±)-Hhd-)] | 1.56 | 6.25 | 3.12 | –
CCCCCCCCCCCCCC1CC(=O)N[C@@H](C)C(=O)N[C@@H](CCCN)C(=O)NCCC(=O)N[C@@H](CO)C(=O)N[C@@H](CO)C(=O)N[C@H](CC(N)=O)C(=O)N[C@@H]([C@@H](C)O)C(=O)NCC(=O)O1 (stereo partly drawn) [AA^7:L-Thr-substituted analog] | > 200 | > 200 | > 200 | –

Source: patent publication US7442683B2, “Cyclic peptide” (Takara Bio Inc., priority 2001, dated 2008)
